Among the data in patent EP0589484A1, “1,2-Ethanediol derivative and salt thereof, process for producing the same, and cerebral function-improving agent comprising the same” (TOYAMA CHEMICAL CO., LTD., priority 1989, dated 1990) are response vs control in vivo and Acute toxicity values, retold here.

Structures can show the parent of a compound that is named as a salt. Where two headings read alike, the source gives them in different places.

The subject of data set [1] is ddY female mouse. Put plainly: Effect of test compound on hypoxia (antihypoxic activity). Conditions: po, read-out: Antihypoxic activity (%). In kind it is in vivo. As to the method:
A test compound dissolved in physiological saline (100 mg/kg) was orally administered to a ddY female mouse (5-6 weeks old, each group consisting of 10 mice). After 1 (or 30 minutes*) hour from the administration, each mouse was placed in a 300-ml glass chamber, and a gas mixture consisting of 4% of oxygen and 96% of nitrogen was passed through the chamber at a rate of 5 liters/min. A time from the start of gas passing to the death of each mouse was measured.
To a control mice group was orally administered only physiological saline.
The antihypoxic activity of the test compound was calculated from the following formula: [formula]

The subject of data set [2] is ddY male mice. Put plainly: Acute toxicity. It counts as in vivo, mouse. To be noted: 50 mg/kg intravenously, group of 3 ddY male mice. The source says: A test compound dissolved in physiological saline was intravenously administered to a group of 3 ddY male mice (5-6 weeks old) to examine the acute toxicity of the test compound.
[3] abbreviates: 100 mg/kg orally, placed in chamber (4% oxygen, 96% nitrogen) after 1 hour from the administration, survival time relative to control.
Where [4] appears, read: 0.5 h, 100 mg/kg orally, placed in chamber (4% oxygen, 96% nitrogen) after 30 minutes from the administration (values marked *), survival time relative to control.

For `CN(C)CCOCC(O)c1cccc(F)c1.Cl` (stereo not drawn) [Compound No. 1, 2-[2-(N,N-dimethylamino)ethoxy]-1-(3-fluorophenyl)ethanol hydrochloride], the response vs control in vivo at 100 mg/kg in data set [1] (1 h) amounted to 155%. Moreover, the Acute toxicity result in data set [2] is reported as “no death case”. On to `CN(C)CCOCC(O)c1cccc(C(F)(F)F)c1.Cl` (stereo not drawn) [Compound No. 42, 2-[2-(N,N-dimethylamino)ethoxy]-1-(3-trifluoromethylphenyl)ethanol hydrochloride], for which the response vs control in vivo at 100 mg/kg in data set [1] (1 h) stood at 194%. The Acute toxicity entry in data set [2] was “no death case”. Regarding `CN(C)CCOCC(O)c1ccc(O)cc1.Cl` (stereo not drawn) [Compound No. 170, 1-(4-hydroxyphenyl)-2-[2-(N,N-dimethylamino)ethoxy]ethanol hydrochloride], in data set [2], the Acute toxicity entry is given as “no death case”. Regarding `CN(C)CCOCC(O)c1ccccc1` (stereo not drawn) [compound 2], the response vs control in vivo at 100 mg/kg in data set [1] (setting [3]) worked out at 119%. In addition, the Acute toxicity entry in data set [2] was “no death case”. For `CN(C)CCOC[C@H](O)c1ccccc1` [compound 3], the response vs control in vivo at 100 mg/kg in data set [1] (setting [4]) amounted to 245%. Also, the Acute toxicity result in data set [2] is “no death case”. Consider `OC(COCCN1CCOCC1)c1ccccc1` (stereo not drawn) [compound 8], for which, in data set [2], the Acute toxicity result is recorded as “no death case”. In the case of `O=C1CCCN1CCOCC(O)c1ccccc1` (stereo not drawn) [compound 9], the response vs control in vivo at 100 mg/kg in data set [1] (setting [3]) was 113%. Further, in data set [2], the Acute toxicity entry was “no death case”. Regarding `Cc1cccc(C(O)COCCN(C)C)c1.Cl` (stereo not drawn) [compound 15, 2-[2-(N,N-dimethylamino)ethoxy]-1-(3-methylphenyl)ethanol hydrochloride], in data set [1] (0.5 h), the response vs control in vivo at 100 mg/kg came to 194%. The Acute toxicity entry in data set [2] was “no death case”. For `Cc1ccc(C(O)COCCN(C)C)cc1` (stereo not drawn) [compound 16], the response vs control in vivo at 100 mg/kg in data set [1] (setting [3]) worked out at 116%. The Acute toxicity entry in data set [2] was “no death case”. For `Cc1cccc(C(O)COCCN2CCCC2=O)c1` (stereo not drawn) [compound 25], the Acute toxicity entry in data set [2] was “no death case”. On to `CN(C)CCOCC(O)c1ccc(Cl)cc1` (stereo not drawn) [compound 33], for which the response vs control in vivo at 100 mg/kg in data set [1] (setting [4]) worked out at 224%. Also, the Acute toxicity result in data set [2] is recorded as “no death case”. For the compound `COc1ccc(C(O)COCCN(C)C)cc1` (stereo not drawn) [compound 44], the Acute toxicity result in data set [2] was “no death case”. On to `CSc1ccc(C(O)COCCN(C)C)cc1` (stereo not drawn) [compound 46], for which the response vs control in vivo at 100 mg/kg in data set [1] (setting [4]) was 150%. For the same compound, the Acute toxicity entry in data set [2] is given as “no death case”. Regarding `CN(C)CCOCC(O)c1ccc2c(c1)OCO2` (stereo not drawn) [compound 52], in data set [2], the Acute toxicity result was “no death case”. Same read-out and setting: as for `CN(C)CCOCC(O)c1cccc(Oc2ccccc2)c1` (stereo not drawn) [compound 53], the entry is “no death case”. As for `Cn1cnc(COCC(O)c2ccccc2)c1` (stereo not drawn) [compound 119], the response vs control in vivo at 100 mg/kg in data set [1] (setting [4]) was determined as 175%. Also, in data set [2], the Acute toxicity entry is recorded as “no death case”. Consider `OC(COCc1cccnc1)c1ccccc1` (stereo not drawn) [compound 120], for which the response vs control in vivo at 100 mg/kg in data set [1] (setting [4]) was 162%. The Acute toxicity result in data set [2] is given as “no death case”. For `OC(COCc1cccnc1)c1cccc(Cl)c1` (stereo not drawn) [compound 126], the response vs control in vivo at 100 mg/kg in data set [1] (setting [4]) is 172%. Moreover, the Acute toxicity entry in data set [2] is “no death case”. With `OC(COCc1c[nH]cn1)c1ccccc1` (stereo not drawn) [compound 132], the response vs control in vivo at 100 mg/kg in data set [1] (setting [4]) was found to be 133%. Moreover, the Acute toxicity result in data set [2] is “no death case”.

`OC(COCC1CN(Cc2ccccc2)CCO1)c1ccc(Oc2ccccc2)cc1` (stereo not drawn) [compound 147]: the Acute toxicity entry in data set [2] is recorded as “no death case”.

With `OC(COCC1CNCCO1)c1ccccc1` (stereo not drawn) [compound 151, 1-phenyl-2-[(morpholin-2-yl)methoxy]ethanol], the response vs control in vivo at 100 mg/kg in data set [1] (setting [3]) came out at 182%. Further, the Acute toxicity result in data set [2] is “no death case”. For the compound `OCC1CCCN1CCOCC(O)c1ccccc1` (stereo not drawn) [compound 159], the Acute toxicity result in data set [2] is reported as “no death case”. For `CN(CCOCC(O)c1ccccc1)C(=O)C1CCC(=O)N1` (stereo not drawn) [compound 160], in data set [2], the Acute toxicity result is recorded as “no death case”.

On to `Cc1cccc(C(O)COCCC2CCNCC2)c1` (stereo not drawn) [compound 176], for which, in data set [2], the Acute toxicity result was “no death case”. On the same count and under the same terms, as for `CC(=O)OC(COCCN1CCOCC1)c1cccc(C)c1` (stereo not drawn) [compound 178, 1-acetoxy-1-(3-methylphenyl)-2-[2-(morpholin-4-yl)ethoxy]ethane], the entry is “no death case”. In the case of `CN(C)CCOCC(O)c1ccc2c(c1)OCCO2` (stereo not drawn) [compound 194], the Acute toxicity result in data set [2] was “no death case”. Turning to `OC(COCCNC1CC1)c1ccccc1` (stereo not drawn) [compound 209], in data set [1] (setting [4]), the response vs control in vivo at 100 mg/kg is 148%. For the same compound, the Acute toxicity entry in data set [2] is on record as “no death case”. For `O[C@@H](COC[C@@H]1CNCCO1)c1ccccc1` [compound 219, (1R,2'S)-1-phenyl-2-[(morpholin-2-yl)methoxy]ethanol maleate], in data set [1] (setting [4]), the response vs control in vivo at 100 mg/kg was found to be 222%. Moreover, the Acute toxicity result in data set [2] was “no death case”. Turning to `O[C@H](COC[C@H]1CNCCO1)c1ccccc1` [compound 220, (1S,2'R)-1-phenyl-2-[(morpholin-2-yl)methoxy]ethanol maleate], in data set [1] (setting [4]), the response vs control in vivo at 100 mg/kg was 183%. In data set [2], the Acute toxicity result is on record as “no death case”. On to `O[C@@H](COC[C@H]1CNCCO1)c1ccccc1` [compound 221, (1R,2'R)-1-phenyl-2-[(morpholin-2-yl)methoxy]ethanol oxalate], for which the response vs control in vivo at 100 mg/kg in data set [1] (setting [4]) came to 183%. For the same compound, the Acute toxicity entry in data set [2] was “no death case”.

For the compound `CN(C)CCOCC(O)c1ccc2ccccc2c1.Cl` (stereo not drawn) [compound 229, 2-[2-(N,N-dimethylamino)ethoxy]-1-(2-naphthyl)ethanol hydrochloride], in data set [1] (1 h), the response vs control in vivo at 100 mg/kg came out at 123%. Moreover, the Acute toxicity result in data set [2] is reported as “no death case”.

With `Cc1ccc2cc(C(O)COCCN(C)C)ccc2c1` (stereo not drawn) [compound 235], in data set [2], the Acute toxicity entry was “no death case”. Regarding `COc1ccc2cc(C(O)COCCN(C)C)ccc2c1` (stereo not drawn) [compound 236], the response vs control in vivo at 100 mg/kg in data set [1] (setting [3]) worked out at 177%. The Acute toxicity entry in data set [2] is listed as “no death case”. As for `CN(C)CCOCC(O)c1ccc2c(c1)CCCC2` (stereo not drawn) [compound 251], the response vs control in vivo at 100 mg/kg in data set [1] (setting [4]) stood at 186%. Moreover, the Acute toxicity entry in data set [2] is “no death case”.

For `OC(COCC1CNCCO1)c1ccc2ccccc2c1` (stereo not drawn) [compound 256, 1-(2-naphthyl)-2-[(morpholin-2-yl)methoxy]ethanol 1/2 fumarate], the response vs control in vivo at 100 mg/kg in data set [1] (setting [3]) came out at 154%. Also, the Acute toxicity result in data set [2] is on record as “no death case”. As for `OC(COCc1cnc[nH]1)c1cccc2ccccc12` (stereo not drawn) [compound 279], the response vs control in vivo at 100 mg/kg in data set [1] (setting [3]) amounted to 198%. Further, the Acute toxicity entry in data set [2] is on record as “no death case”. For the compound `Cn1cncc1COCC(O)c1cccc2ccccc12` (stereo not drawn) [compound 283, 2-(1-methylimidazol-5-yl)methoxy-1-(1-naphthyl)ethanol], in data set [1] (setting [3]), the response vs control in vivo at 100 mg/kg turned out to be 183%. In data set [2], the Acute toxicity result is “no death case”. For `CN(C)CCOCC(O)c1ccc2sccc2c1.Cl` (stereo not drawn) [compound 312, 1-(benzo[b]thiophen-5-yl)-2-[2-(N,N-dimethylamino)ethoxy]ethanol hydrochloride], in data set [1] (0.5 h), the response vs control in vivo at 100 mg/kg was determined as 221%. Moreover, the Acute toxicity entry in data set [2] is “no death case”. For the compound `CN(C)CCOCC(O)c1cccs1` (stereo not drawn) [compound 313], the response vs control in vivo at 100 mg/kg in data set [1] (setting [4]) came to 154%. Moreover, the Acute toxicity entry in data set [2] is “no death case”. On to `CN(C)CCOCC(O)c1cccnc1` (stereo not drawn) [compound 315], for which the Acute toxicity entry in data set [2] is “no death case”. Regarding `CN(C)CCOCC(O)c1ccoc1` (stereo not drawn) [compound 316], the Acute toxicity entry in data set [2] was “no death case”.

As for `CN(C)CCOCC(O)c1ccc2occc2c1` (stereo not drawn) [compound 325], in data set [1] (setting [4]), the response vs control in vivo at 100 mg/kg was 217%. Besides, the Acute toxicity result in data set [2] is “no death case”. Turning to `OC(COCCN1CCOCC1)c1ccc2sccc2c1` (stereo not drawn) [compound 327], the response vs control in vivo at 100 mg/kg in data set [1] (setting [4]) stood at 160%. Besides, the Acute toxicity result in data set [2] is listed as “no death case”.

On to `CN(C)CCCCOCC(O)c1ccc2sccc2c1` (stereo not drawn) [compound 337], for which the response vs control in vivo at 100 mg/kg in data set [1] (setting [4]) amounted to 309%. Moreover, the Acute toxicity entry in data set [2] was “no death case”. In the case of `Cl.O=C(NCCOCC(O)c1ccc2sccc2c1)c1cccnc1` (stereo not drawn) [compound 360, 1-(benzo[b]thiophen-5-yl)-2-[2-(nicotinoylamino)ethoxy]ethanol hydrochloride], the Acute toxicity entry in data set [2] was “no death case”.

`CN(C)CCOCC(O)c1ccc(Cl)s1` (stereo not drawn) [compound 368]: in data set [1] (setting [4]), the response vs control in vivo at 100 mg/kg stood at 135%. For the same compound, the Acute toxicity entry in data set [2] was “no death case”. In the case of `NCCOCC(O)c1ccc2occc2c1` (stereo not drawn) [compound 369], the response vs control in vivo at 100 mg/kg in data set [1] (setting [4]) was determined as 143%. The Acute toxicity result in data set [2] is listed as “no death case”. In the case of `CNCCOCC(O)c1cc2ccccc2s1` (stereo not drawn) [compound 375], the response vs control in vivo at 100 mg/kg in data set [1] (setting [4]) worked out at 156%. For the same compound, the Acute toxicity entry in data set [2] is reported as “no death case”. In the case of `Cc1ccc2sc(C(O)COCCN(C)C)cc2c1` (stereo not drawn) [compound 385], in data set [1] (setting [4]), the response vs control in vivo at 100 mg/kg was found to be 161%. Besides, the Acute toxicity entry in data set [2] is reported as “no death case”. As for `CN(C)CCCOCC(O)c1ccc2occc2c1` (stereo not drawn) [compound 390], the response vs control in vivo at 100 mg/kg in data set [1] (setting [4]) is 248%. Moreover, in data set [2], the Acute toxicity result is “no death case”.
